Values of other authors as cited in publication PMC8435724, “A Single L/D-Substitution at Q4 of the mInsA2-10 Epitope Prevents Type 1 Diabetes in Humanized NOD Mice” (Frontiers in Immunology, 2021).

Legend:
[1] = tested on: insulin B15-23-reactive CD8^+ T cell clone G9C8; details: cytotoxicity and IFN-γ production assays
[2] = tested on: T cells of T1D patients
Description: Thus, human InsA2-10 is likely to be an immunogenic target for diabetic patients.

| Substance | antagonist activity on clone G9C8 (in words) [1] | presence of specific T cell responses (in words) [2] |
| --- | --- | --- |
| G6H: APL of insulin B15-23 (LYLVCGERG) substituted at position 6 (LYLVCHERG) | antagonist activity |  |
| GIVEQCCTSI [InsA1-10, human proinsulin (PPI) 90-99 or InsA1-10 (…)] |  | presence of specific T cell responses |
| R8L: APL of insulin B15-23 (LYLVCGERG) substituted at position 8 (LYLVCGELG) | antagonist activity |  |
